One data set concerns hepatic enzymes. The data set can be described thus: Auto-induction on repeat dosing (decrease in C max or AUC). The class given is in vivo. To be noted: repeated dosing to a warm-blooded animal. The text has this:
The result is a decrease on repeat dosing of the quantity of the compound present in the animal's blood stream as shown, for example, by a decrease in the maximum concentration achieved (C max) or, for example, a decrease in the exposure of the animal to the compound as measured by the area under the curve (AUC) of a plot of the concentration of the compound in the blood stream versus time after dosing.

A short description of data set [1]: Crystallinity / physical form. The data set is classed as physicochemical. The text has this:
Such non-crystalline compounds are undesirable when consideration is given toward the preparation, purification, analysis, handling and formulation of larger quantities of the compounds.
In another aspect of the invention we have discovered that certain compounds of the invention are crystalline. The crystalline compounds of the invention are those for which a melting point has been given within the Examples provided hereinafter, for example the compounds of Examples 27 and 28. Thus such compounds are of value when their preparation on a larger scale is required. The purification, analysis and handling of a material is facilitated if it is formed in the crystalline state. It is known, for example, that the removal of solvent residues from non-crystalline, oily materials is problematical. In addition the preparation of a pharmaceutical composition comprising a crystalline material is a conventional procedure. The composition may, for example, be in a form suitable for oral use such as a tablet or capsule; or, for example, in a form suitable for administration by inhalation, for example as a finely divided powder or a microcrystalline form. Such options for the formulation of the material are precluded should it be formed in an oily state.

For data set [2], the target named is T1, 5-LO (LTB4) (Rattus norvegicus, UniProt P12527).
T1 construct: An in vivo system involving measuring the effects of a test compound administered orally to a group of male rats; from tissue; host or cells: live male rats, zymosan-inflamed subcutaneous air pouch (endogenous enzyme)
T1 sequence (P12527 1-673): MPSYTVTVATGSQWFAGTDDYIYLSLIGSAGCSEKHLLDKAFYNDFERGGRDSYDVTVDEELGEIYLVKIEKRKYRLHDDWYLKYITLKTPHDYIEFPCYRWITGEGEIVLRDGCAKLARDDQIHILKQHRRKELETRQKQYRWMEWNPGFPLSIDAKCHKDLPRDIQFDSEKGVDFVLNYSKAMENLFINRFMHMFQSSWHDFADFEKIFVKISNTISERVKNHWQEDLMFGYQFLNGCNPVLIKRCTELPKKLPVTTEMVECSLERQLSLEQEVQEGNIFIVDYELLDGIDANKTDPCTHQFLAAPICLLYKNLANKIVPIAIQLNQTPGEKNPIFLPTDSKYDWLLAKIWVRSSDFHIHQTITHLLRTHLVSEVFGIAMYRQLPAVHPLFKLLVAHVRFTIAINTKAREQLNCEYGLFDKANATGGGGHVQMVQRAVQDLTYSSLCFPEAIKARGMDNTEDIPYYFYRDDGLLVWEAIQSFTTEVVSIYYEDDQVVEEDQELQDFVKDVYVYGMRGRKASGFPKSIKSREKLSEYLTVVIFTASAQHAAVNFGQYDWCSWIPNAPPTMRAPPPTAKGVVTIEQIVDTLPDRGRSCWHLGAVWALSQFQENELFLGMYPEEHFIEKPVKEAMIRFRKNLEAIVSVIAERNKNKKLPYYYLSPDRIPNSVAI
The data set can be described thus: Test c): in vivo zymosan-induced LTB4 liberation in air pouch of male rats, oral. To be noted: 3 h; test c). The procedure: c) An in vivo system involving measuring the effects of a test compound administered orally to a group of male rats against the liberation of LTB4 induced by zymosan within an air pouch generated within the subcutaneous tissue of the back of the rats. The rats are anaesthetised and air pouches are formed by the injection of sterile air (20 ml). A further injection of air (10 ml) is similarly given after 3 days. At 6 days after the initial air injection the test compound is administered (usually orally as the suspension produced when a solution of the test compound in dimethylsulphoxide is added to hydroxypropylmethylcellulose), followed by the intrapouch injection of zymosan (1 ml of a 1% suspension in physiological saline). After 3 hours the rats are killed, the air pouches are lavaged with physiological saline, and the specific radioimmunoassay described above is used to assay LTB4 in the washings. This test provides an indication of inhibitory effects against 5-L0 in an inflammatory milieu.
Test c): oral ED50 (LTB4) in the range, for example, 0.1-100 mg/kg.

The target in data set [3] is T2, 5-LO (LTB4) (Homo sapiens, UniProt P09917).
T2 construct: incubating a test compound with heparinised human blood, prior to challenge with the calcium ionophore A23187; from tissue; host or cells: heparinised human whole blood (endogenous enzyme of blood cells)
T2 sequence (P09917 1-674): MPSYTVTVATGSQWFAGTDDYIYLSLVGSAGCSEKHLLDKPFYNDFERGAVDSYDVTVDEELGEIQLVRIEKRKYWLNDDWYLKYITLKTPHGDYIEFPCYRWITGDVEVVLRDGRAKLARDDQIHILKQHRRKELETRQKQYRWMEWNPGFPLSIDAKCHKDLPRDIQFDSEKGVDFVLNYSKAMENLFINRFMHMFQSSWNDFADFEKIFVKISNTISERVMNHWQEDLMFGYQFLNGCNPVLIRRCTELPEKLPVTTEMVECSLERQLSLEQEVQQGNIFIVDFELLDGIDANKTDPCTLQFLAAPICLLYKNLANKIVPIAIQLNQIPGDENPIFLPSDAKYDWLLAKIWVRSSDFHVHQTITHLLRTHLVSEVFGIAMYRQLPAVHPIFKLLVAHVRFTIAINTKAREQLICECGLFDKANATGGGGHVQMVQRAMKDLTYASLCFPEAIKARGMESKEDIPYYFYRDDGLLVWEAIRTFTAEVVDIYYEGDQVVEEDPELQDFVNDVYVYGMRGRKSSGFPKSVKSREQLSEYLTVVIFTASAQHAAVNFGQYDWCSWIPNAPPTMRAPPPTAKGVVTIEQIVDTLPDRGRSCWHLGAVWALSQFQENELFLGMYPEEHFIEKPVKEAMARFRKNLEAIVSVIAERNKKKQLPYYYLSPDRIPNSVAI
The data set can be described thus: Test a): in vitro assay in heparinised human blood challenged with calcium ionophore A23187, LTB4 by radioimmunoassay. The class given is cell-based. The procedure: a) An in vitro assay system involving incubating a test compound with heparinised human blood, prior to challenge with the calcium ionophore A23187 and then indirectly measuring the inhibitory effects on 5-L0 by assaying the amount of LTB4 using specific radioimmunoassays described by Carey and Forder (F. Carey and R. A. Forder, Prostaglandins, Leukotrienes Med., 1986, 22, 57; Prostaglandins, 1984, 28, 666; Brit. J. Pharmacol. 1985, 84, 34P) which involve the use of a protein-LTB4 conjugate produced using the procedure of Young et alia (Prostaglandins, 1983, 26(4), 605-613). The effects of a test compound on the enzyme cyclooxygenase (which is involved in the alternative metabolic pathway for arachidonic acid and gives rise to prostaglandins, thromboxanes and related metabolites) may be measured at the same time using the specific radioimmunoassay for thromboxane B2(TxB2) described by Carey and Forder (see above). This test provides an indication of the effects of a test compound against 5-L0 and also cyclooxygenase in the presence of blood cells and proteins. It permits the selectivity of the inhibitory effect on 5-L0 or cyclooxygenase to be assessed.

Take `COC1(c2ccc(Sc3ccc4c(c3)CCC(=O)N4C)s2)CCOCC1` [4-methoxy-4-[5-(1-methyl-2-oxo-1,2,3,4-tetrahydroquinolin-6-ylthio)thien-2-yl]tetrahydropyran, reference compound]: the auto-induction result with hepatic enzymes is listed as “possesses the undesirable property of auto-induction”.

Consider `CO[C@]1(c2ccc(Sc3ccc4c(c3)CCC(=S)N4C)s2)CCO[C@@H](C)C1` [(2S,4R)-4-methoxy-2-methyl-4-[5-(1-methyl-2-thioxo-1,2,3,4-tetrahydroquinolin-6-ylthio)thien-2-yl]tetrahydropyran, reference compound], for which, in data set [1], the “crystallinity / physical form” value is reported as “viscous oil”. As for `C[C@H]1C[C@@](O)(c2csc(S(=O)(=O)c3ccc4c(c3)CCC(=O)N4C)c2)CCO1` [Example 9, (2S,4R)-4-hydroxy-2-methyl-4-[2-(1-methyl-2-oxo-1,2,3,4-tetrahydroquinolin-6-ylsulphonyl)thien-4-yl]tetrahydropyran], the auto-induction entry in the data set on hepatic enzymes is recorded as “lack to a substantial degree the undesirable property of auto-induction”.

Broadly, the ED50 is the dose at which the effect has come halfway, by size or by number of responders. Usually IC50 stands for the point on the concentration scale where inhibition reaches its midpoint. `C[C@H]1C[C@@](O)(c2csc(Sc3ccc4c(c3)CCC(=O)N4C)c2)CCO1` [Example 5, (2S,4R)-4-hydroxy-2-methyl-4-[2-(1-methyl-2-oxo-1,2,3,4-tetrahydroquinolin-6-ylthio)thien-4-yl]tetrahydropyran]: the ED50 on 5-LO (LTB4) [2] is roughly 0.02 mg/kg. Besides, at 5-LO (LTB4) [3], the IC50 is 30 nM. `C[C@H]1C[C@@](O)(c2csc(Sc3ccc4c(c3)CC(=O)N4C)c2)CCO1` [Example 28, (2S,4R)-4-hydroxy-2-methyl-4-[2-(1-methyl-2-oxoindolin-5-ylthio)thien-4-yl]tetrahydropyran]: in the data set on hepatic enzymes, the auto-induction entry is “lack to a substantial degree the undesirable property of auto-induction”. For the same molecule, on 5-LO (LTB4) [2], the median effective dose (ED50) was roughly 0.05 mg/kg. The “crystallinity / physical form” value in data set [1] is recorded as “crystalline”. On 5-LO (LTB4) [3], the IC50 was 20 nM.

For the molecule `C[C@H]1C[C@@](O)(c2cc(F)cc(S(=O)(=O)c3ccc4c(c3)CCC(=O)N4C)c2)CCO1` [Example 2, (2S,4R)-4-[5-fluoro-3-(1-methyl-2-oxo-1,2,3,4-tetrahydroquinolin-6-ylsulphonyl)phenyl]-4-hydroxy-2-methyltetrahydropyran], on 5-LO (LTB4) [2], the ED50 was roughly 0.15 mg/kg. For the same molecule, the IC50 at 5-LO (LTB4) [3] was determined as 30 nM. For the molecule `C[C@H]1C[C@@](O)(c2cnc(Sc3ccc4c(c3)CCC(=O)N4C)s2)CCO1` [Example 3, (2S,4R)-4-hydroxy-2-methyl-4-[2-(1-methyl-2-oxo-1,2,3,4-tetrahydro-quinolin-6-ylthio)thiazol-5-yl]tetrahydropyran], the auto-induction entry in the data set on hepatic enzymes is reported as “lack to a substantial degree the undesirable property of auto-induction”. Moreover, the ED50 at 5-LO (LTB4) [2] is roughly 0.2 mg/kg. Besides, at 5-LO (LTB4) [3], the IC50 worked out at 50 nM.

On to `C[C@H]1C[C@@](O)(c2cnc(Sc3ccc4c(c3)CC(=O)N4C)s2)CCO1` [Example 27, (2S,4R)-4-hydroxy-2-methyl-4-[2-(1-methyl-2-oxoindolin-5-ylthio)thiazol-5-yl]tetrahydropyran], for which the “crystallinity / physical form” value in data set [1] was “crystalline”.
